# Reference: ChEMBL document CHEMBL1201862, “PubChem BioAssay data set” (2004)
# Calls of active or inactive are those of the source.
# Experiments:
# [1] = intracellular Trypanosoma cruzi inhibitors in host cells – cell-based, plate reader, cherry-pick samples, set 3, dose response (AID 651818); assay type: functional;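 further: compounds incubated with infected cells for about four days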
# Fatty acid synthase [2] = molecular target: T1, Fatty acid synthase (Homo sapiens, UniProt P49327); experiment: inhibition of human FAS-TE enzyme activity – biochemical, kinetic fluorescence intensity, dose response (AID 624326); assay type: functional;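 further: rate of fluorescence rise from hydrolysis of a fluorogenic O-methyl fluorescein ester substrate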
# Fatty acid synthase [3] = molecular target: T1, Fatty acid synthase; experiment: inhibition of human FAS-TE enzyme activity – biochemical, endpoint fluorescence intensity, uHTS hits, dose response (AID 624327); assay type: functional;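 further: fluorescence from hydrolysis of an O-methyl fluorescein acyl ester substrate by the enzyme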
# [4] = molecular target: T2, Adenosylmethionine-8-amino-7-oxononanoate aminotransferase (Mycobacterium tuberculosis, UniProt P9WQ81); experiment: Mycobacterium tuberculosis BioA enzyme inhibitor Measured in Biochemical System Using Plate Reader - 2163-02_Inhibitor_Dose_CherryPick_Activity.; assay type: functional, Mycobacterium tuberculosis UT205
# T2 sequence (P9WQ81 whole entry): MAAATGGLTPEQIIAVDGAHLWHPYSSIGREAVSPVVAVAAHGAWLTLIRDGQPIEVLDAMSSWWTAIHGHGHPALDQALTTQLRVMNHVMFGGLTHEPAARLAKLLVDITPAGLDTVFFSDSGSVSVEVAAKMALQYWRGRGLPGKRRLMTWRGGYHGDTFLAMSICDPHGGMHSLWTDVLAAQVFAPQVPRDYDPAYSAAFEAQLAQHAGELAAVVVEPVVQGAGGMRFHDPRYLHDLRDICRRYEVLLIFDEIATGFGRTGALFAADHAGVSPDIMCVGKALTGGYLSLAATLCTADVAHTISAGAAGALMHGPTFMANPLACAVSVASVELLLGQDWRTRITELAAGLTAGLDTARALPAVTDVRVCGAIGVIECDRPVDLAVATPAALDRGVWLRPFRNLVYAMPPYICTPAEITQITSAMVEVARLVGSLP
# Prothrombin = Prothrombin (Homo sapiens, UniProt P00734); experiment: Thrombin 1536 HTS Dose Response Confirmation. [Related pubchem assays: 1046 (Thrombin 1536 HTS; hits were confirmed in this assay)]; assay type: functional
# [5] = Luminescence-based cell-based high throughput dose response assay to identify activators of the DAF-12 from the parasite S. stercoralis (ssDAF-12).; assay type: functional
# [6] = molecular target: Voltage-dependent T-type calcium channel subunit alpha-1H (Homo sapiens, UniProt O95180); assay type: functional;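 further: channel activity triggered by adding a high calcium stimulation buffer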
# [7] = molecular target: T3, Ubiquitin-conjugating enzyme E2 N (Homo sapiens, UniProt P61088); assay type: functional;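 further: Dose-response confirmation in a TR-FRET assay detecting UBC13-driven polyubiquitin chain formation, inhibition measured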
# T3 sequence (P61088 whole entry): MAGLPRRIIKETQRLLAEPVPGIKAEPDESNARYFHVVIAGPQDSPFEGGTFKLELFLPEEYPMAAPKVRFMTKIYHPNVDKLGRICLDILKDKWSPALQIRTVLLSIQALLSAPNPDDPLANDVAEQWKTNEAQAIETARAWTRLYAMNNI
# [8] = DRD fibroblast viability loss – cell-based, non-viral oncogenic, luminescence, dose response (AID 1934); assay type: functional; conditions: Homo sapiens
# BJ [9] = experiment: BJ-TERT fibroblast viability loss – cell-based, RAS-independent, luminescence, dose response (AID 1933); assay type: functional; conditions: Homo sapiens
# BJ [10] = experiment: cells; assay type: functional, cell-based; conditions: Homo sapiens
# BJ [11] = experiment: BJ-TERT-LT-ST fibroblast viability loss – cell-based, RAS-independent, luminescence, dose response (AID 1935); assay type: functional; conditions: Homo sapiens;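 further: BJ fibroblasts immortalized with TERT plus LT and ST oncogenes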
# [12] = NIH-3T3 fibroblast cytotoxicity, dose response, cytotoxicity control, cell-based, fluorescence, Alamar Blue, secondary assay (AID 2327); assay type: functional;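 further: NIH-3T3 mouse fibroblasts cultured with fluconazole at 8 µg/mL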
# [13] = fluconazole-exposed Candida albicans growth modulators – fluorescence, retest, confirmation (AID 2467); assay type: functional, cell-based
# Protein skinhead-1 = molecular target: T4, Protein skinhead-1 (Caenorhabditis elegans, UniProt P34707); assay type: functional
# T4 sequence (P34707 whole entry): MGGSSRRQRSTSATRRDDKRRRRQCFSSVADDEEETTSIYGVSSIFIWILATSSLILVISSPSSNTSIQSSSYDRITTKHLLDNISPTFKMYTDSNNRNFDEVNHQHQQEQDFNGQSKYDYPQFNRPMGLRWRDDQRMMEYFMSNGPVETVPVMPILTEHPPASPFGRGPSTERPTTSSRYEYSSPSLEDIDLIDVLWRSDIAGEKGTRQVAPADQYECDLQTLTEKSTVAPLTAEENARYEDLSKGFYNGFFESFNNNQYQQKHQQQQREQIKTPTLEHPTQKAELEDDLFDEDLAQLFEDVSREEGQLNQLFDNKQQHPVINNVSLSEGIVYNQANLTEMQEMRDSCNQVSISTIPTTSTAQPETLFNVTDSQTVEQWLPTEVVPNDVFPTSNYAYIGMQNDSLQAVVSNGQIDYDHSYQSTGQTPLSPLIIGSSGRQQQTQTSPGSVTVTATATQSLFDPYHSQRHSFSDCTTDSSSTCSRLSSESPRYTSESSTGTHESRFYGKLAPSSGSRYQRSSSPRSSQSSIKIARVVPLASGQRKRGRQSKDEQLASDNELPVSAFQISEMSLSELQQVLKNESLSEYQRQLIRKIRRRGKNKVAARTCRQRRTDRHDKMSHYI
# [14] = molecular target: T5, Carboxy-terminal domain RNA polymerase II polypeptide A small phosphatase 1 (Homo sapiens, UniProt Q9GZU7); experiment: CTDSP1 inhibitors, concentration-response, biochemical, absorbance readout, ultra-high-throughput screen actives (AID 540297); assay type: functional
# T5 sequence (Q9GZU7 whole entry): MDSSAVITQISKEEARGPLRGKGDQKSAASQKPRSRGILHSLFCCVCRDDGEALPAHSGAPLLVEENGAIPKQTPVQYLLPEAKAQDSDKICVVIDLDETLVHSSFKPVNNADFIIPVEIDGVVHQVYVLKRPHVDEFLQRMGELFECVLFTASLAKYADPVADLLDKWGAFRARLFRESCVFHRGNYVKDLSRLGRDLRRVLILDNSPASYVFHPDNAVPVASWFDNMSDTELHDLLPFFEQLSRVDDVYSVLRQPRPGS
# Caspase-6 = molecular target: T6, Caspase-6 (Homo sapiens, UniProt P55212); experiment: inhibition of CASP6 peptide cleavage – biochemical, VEID-R110 fluorescence, cherry-pick, dose response (AID 720632)
# T6 sequence (P55212 whole entry): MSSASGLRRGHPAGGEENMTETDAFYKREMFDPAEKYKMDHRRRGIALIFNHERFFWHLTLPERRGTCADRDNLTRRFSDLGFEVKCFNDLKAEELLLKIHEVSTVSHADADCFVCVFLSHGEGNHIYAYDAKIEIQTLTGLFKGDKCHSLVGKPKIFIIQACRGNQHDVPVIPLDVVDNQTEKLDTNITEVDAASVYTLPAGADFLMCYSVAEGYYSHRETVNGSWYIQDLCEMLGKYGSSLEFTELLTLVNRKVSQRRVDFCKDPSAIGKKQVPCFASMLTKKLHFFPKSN
# [15] = Luminescence Cell-Based Dose Response HTS to Identify Inhibitors of 5'UTR Stem-Loop Driven Prion Protein mRNA Translation in H4 Neuroglioblastoma Cells. [Related pubchem assays: 1827 (Project Summary), 1813 (Primary HTS)]; assay type: functional
# [16] = alpha-synuclein stem-loop luciferase translation blockers – H4 neuroglioma cells, luminescence, confirmation (AID 1988); assay type: functional, cell-based
# [17] = luciferase reporter signal suppression in cells – H4 neuroglioma cells, luminescence, dose response (AID 1990); assay type: functional, cell-based
# [18] = Luminescence Cell-Based Dose Retest to Confirm Inhibitors of Cancer Stem Cells. [Related pubchem assays (depositor defined):AID2717, AID2721]; assay type: functional; conditions: Homo sapiens
# [19] = molecular target: T7, Heat shock factor protein 1 (Mus musculus, UniProt P38532); experiment: decrease of HSF1-responsive luciferase luminescence – cell-based, NIH3T3, dose retest, confirmation (AID 2382); assay type: functional;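 further: NIH3T3 fibroblasts with HSF1-driven luciferase reporter stressed by proteasome inhibitor MG132; luminescence from HSF1-driven luciferase expression after 8 hours of MG132 stress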
# T7 sequence (P38532 whole entry): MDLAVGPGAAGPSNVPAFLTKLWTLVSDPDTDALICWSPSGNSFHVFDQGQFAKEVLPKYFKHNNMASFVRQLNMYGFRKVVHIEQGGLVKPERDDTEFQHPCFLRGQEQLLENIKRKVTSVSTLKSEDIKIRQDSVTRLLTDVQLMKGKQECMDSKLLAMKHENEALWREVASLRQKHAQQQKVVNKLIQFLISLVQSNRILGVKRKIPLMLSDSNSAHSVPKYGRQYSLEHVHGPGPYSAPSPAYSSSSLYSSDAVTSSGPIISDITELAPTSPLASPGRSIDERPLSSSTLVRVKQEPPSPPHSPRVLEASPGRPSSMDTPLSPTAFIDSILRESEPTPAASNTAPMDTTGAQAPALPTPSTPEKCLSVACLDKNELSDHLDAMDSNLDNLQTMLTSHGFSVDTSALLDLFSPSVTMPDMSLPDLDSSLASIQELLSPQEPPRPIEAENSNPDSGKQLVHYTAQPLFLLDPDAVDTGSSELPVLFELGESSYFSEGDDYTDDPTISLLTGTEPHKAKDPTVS
# [20] = microbe, parasite or virus in culture; assay type: functional; conditions: Mycobacterium tuberculosis
# T1 sequence (P49327 whole entry): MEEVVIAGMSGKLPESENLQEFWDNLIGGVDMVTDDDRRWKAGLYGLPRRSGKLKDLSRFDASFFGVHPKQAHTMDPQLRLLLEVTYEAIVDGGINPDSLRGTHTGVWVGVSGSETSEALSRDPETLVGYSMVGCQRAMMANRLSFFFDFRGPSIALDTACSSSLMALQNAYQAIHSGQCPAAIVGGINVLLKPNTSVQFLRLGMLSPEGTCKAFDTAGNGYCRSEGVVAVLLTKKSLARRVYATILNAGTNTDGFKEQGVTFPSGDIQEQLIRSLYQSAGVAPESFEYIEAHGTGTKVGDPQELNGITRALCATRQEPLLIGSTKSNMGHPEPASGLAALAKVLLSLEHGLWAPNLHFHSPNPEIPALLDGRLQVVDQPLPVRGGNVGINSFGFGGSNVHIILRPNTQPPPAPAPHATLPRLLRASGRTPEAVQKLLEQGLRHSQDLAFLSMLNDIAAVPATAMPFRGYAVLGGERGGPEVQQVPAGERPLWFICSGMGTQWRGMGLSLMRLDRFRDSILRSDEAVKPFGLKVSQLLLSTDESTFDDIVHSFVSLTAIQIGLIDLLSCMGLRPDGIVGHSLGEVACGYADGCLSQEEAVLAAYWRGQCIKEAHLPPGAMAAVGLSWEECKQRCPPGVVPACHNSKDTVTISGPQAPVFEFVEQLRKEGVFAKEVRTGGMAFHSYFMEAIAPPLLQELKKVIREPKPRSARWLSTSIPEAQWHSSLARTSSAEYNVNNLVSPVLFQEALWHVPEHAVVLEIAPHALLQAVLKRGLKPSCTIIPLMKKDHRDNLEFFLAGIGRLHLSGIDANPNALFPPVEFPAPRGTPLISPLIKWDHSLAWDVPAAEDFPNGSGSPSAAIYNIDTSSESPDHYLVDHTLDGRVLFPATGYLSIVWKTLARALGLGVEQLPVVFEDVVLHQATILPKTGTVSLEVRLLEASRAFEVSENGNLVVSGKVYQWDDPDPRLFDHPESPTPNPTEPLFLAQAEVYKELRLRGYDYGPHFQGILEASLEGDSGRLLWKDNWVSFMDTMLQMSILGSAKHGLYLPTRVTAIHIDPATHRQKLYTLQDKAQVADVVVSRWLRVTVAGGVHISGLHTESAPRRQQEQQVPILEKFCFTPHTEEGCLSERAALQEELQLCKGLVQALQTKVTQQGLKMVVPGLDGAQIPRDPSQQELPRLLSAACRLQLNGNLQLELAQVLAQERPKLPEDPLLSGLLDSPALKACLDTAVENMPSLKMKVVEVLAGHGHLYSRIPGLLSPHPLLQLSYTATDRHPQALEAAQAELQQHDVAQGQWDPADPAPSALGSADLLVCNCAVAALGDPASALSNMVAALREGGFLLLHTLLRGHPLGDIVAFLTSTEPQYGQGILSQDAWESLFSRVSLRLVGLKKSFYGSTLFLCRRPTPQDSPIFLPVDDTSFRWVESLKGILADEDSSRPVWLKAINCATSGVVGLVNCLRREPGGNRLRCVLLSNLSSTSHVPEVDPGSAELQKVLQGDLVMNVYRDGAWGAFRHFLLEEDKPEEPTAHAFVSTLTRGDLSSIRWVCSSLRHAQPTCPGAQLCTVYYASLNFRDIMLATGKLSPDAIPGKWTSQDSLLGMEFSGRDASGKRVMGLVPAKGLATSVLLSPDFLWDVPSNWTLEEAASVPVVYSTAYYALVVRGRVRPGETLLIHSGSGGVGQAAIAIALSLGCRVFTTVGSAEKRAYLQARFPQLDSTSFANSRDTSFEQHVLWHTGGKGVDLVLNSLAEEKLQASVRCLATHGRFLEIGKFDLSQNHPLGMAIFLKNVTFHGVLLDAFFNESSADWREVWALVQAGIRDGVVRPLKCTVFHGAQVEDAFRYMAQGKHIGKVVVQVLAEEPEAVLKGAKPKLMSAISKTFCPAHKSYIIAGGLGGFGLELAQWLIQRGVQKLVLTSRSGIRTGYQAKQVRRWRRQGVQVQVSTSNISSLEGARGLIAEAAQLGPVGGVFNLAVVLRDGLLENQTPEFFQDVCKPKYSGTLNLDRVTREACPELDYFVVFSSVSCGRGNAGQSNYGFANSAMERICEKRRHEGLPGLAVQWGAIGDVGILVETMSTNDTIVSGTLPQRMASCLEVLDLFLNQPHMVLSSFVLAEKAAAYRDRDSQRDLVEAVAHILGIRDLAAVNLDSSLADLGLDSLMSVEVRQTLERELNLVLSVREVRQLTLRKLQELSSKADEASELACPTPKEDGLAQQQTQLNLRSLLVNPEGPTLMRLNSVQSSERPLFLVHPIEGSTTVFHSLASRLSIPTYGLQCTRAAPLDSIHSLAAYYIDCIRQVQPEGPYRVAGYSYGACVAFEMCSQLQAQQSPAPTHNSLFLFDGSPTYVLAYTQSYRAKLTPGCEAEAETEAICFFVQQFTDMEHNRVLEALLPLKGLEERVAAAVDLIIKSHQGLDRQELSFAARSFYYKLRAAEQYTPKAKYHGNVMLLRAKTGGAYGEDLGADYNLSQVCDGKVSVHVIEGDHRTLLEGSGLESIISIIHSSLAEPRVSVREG
# Voltage-dependent T-type calcium channel subunit alpha-1H, sequence (O95180 whole entry): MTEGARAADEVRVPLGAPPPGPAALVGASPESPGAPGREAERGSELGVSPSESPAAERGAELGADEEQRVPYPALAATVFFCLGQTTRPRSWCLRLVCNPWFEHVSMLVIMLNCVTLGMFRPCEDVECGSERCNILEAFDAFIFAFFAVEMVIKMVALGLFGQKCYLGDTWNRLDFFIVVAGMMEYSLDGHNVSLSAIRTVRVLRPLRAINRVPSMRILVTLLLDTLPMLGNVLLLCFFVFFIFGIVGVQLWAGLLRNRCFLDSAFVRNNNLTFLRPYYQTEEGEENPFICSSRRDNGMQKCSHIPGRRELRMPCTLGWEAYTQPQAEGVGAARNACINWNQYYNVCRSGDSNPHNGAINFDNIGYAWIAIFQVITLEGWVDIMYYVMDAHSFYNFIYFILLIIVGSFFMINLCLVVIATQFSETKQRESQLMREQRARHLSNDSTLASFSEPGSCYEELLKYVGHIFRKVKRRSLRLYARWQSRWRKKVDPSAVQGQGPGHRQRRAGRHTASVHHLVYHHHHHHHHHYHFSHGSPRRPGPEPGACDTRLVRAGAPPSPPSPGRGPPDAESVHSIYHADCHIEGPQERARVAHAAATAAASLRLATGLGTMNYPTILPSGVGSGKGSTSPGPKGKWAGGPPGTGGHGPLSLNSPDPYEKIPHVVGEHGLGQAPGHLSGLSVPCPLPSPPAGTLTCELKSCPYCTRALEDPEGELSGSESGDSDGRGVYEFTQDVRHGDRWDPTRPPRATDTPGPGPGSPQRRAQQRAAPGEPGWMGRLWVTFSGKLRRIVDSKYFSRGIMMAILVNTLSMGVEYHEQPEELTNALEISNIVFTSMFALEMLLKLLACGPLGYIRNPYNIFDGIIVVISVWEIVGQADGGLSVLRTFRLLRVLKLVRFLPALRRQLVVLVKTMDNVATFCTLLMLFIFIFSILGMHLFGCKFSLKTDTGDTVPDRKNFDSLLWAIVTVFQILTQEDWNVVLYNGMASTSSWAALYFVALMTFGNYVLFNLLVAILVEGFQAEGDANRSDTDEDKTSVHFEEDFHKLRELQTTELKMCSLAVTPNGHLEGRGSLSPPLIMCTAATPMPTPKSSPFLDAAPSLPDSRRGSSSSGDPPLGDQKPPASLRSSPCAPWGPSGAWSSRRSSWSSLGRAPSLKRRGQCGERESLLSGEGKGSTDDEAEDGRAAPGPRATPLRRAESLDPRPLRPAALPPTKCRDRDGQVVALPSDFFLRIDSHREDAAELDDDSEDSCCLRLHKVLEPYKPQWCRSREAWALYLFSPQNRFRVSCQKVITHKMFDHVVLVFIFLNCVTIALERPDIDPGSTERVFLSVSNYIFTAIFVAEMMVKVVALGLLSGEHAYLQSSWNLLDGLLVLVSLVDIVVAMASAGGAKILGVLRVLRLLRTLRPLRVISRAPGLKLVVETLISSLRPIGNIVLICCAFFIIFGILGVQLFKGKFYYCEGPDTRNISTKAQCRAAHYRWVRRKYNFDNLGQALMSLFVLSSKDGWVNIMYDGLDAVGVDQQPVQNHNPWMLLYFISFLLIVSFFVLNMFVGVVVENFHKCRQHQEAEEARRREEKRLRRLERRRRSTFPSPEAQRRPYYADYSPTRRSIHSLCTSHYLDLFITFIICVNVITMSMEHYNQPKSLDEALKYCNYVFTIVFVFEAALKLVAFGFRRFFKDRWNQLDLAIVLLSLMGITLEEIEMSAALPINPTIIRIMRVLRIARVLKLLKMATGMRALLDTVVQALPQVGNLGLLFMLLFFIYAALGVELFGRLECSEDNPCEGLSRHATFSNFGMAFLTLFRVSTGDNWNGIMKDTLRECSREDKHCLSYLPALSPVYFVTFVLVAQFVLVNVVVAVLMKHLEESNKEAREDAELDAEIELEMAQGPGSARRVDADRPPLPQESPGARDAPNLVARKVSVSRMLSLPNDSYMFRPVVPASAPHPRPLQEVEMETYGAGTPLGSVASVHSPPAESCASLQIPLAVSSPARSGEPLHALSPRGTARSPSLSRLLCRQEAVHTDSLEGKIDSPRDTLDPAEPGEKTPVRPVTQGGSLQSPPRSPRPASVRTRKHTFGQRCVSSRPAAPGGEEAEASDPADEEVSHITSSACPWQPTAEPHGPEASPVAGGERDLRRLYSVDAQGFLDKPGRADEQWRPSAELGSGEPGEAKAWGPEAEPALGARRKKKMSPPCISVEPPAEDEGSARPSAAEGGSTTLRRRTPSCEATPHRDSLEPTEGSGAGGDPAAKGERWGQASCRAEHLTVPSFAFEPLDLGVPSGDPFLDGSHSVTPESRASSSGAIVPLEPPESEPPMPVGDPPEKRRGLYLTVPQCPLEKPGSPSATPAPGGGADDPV
compound,measurement,setting,value
COc1ccc(NC(=O)Nc2ccc3c(c2)CC(=O)N([C@@H](C)CO)C[C@H](C)[C@@H](CN(C)Cc2ccc(C(F)(F)F)cc2)O3)cc1,AC50,[1],5.55 µM (active)
C[C@@H]1CN([C@H](C)CO)C(=O)c2cc(NC(=O)Nc3ccc4c(c3)OCO4)ccc2O[C@@H]1CN(C)Cc1ccc(-c2ccccc2)cc1,AC50,[1],2.72 µM (active)
C[C@H]1CN([C@@H](C)CO)C(=O)c2cccc(NC(=O)Nc3ccccc3)c2O[C@H]1CN(C)C(=O)Nc1ccc2c(c1)OCO2,AC50,[1],20 µM (inactive)
O=C(NCc1ccc(F)cc1)C(C(=O)NCc1ccc(F)cc1)c1ncc(C(F)(F)F)cc1Cl,IC50,Fatty acid synthase [2],11.8 µM (active)
same,IC50,Fatty acid synthase [3],7.79 µM (active)
Cc1nc2sc(C(c3ccc(Cl)cc3)N3CCN(c4ccccc4F)CC3)c(O)n2n1 (stereo not given),AC50,[4],1.69 µM (active)
COc1ccc(OCC(=O)N2CCN(Cc3ccc(SC)cc3)CC2)cc1,IC50,Prothrombin,> 50 µM (not active)
Nc1nc(=O)n(C2CC(O)C(CO)O2)cc1Cl (stereo not given),IC50,[5],> 67.6 µM (inactive)
C[C@@H]1CN([C@@H](C)CO)C(=O)c2cccc(NS(=O)(=O)c3ccc(Cl)cc3)c2O[C@@H]1CN(C)Cc1ccc(Oc2ccccc2)cc1,AC50,[1],4.87 µM (active)
O=[N+]([O-])c1ccc(Sc2n[nH]c(-c3ccc(Cl)cc3Cl)n2)nc1,IC50,Fatty acid synthase [2],8.25 µM (active)
same,IC50,Fatty acid synthase [3],7.15 µM (active)
O=C(COC(=O)c1cc([N+](=O)[O-])ccc1N1CCOCC1)c1ccc(F)cc1,IC50,Fatty acid synthase [2],9.03 µM (active)
same,IC50,Fatty acid synthase [3],5.45 µM (active)
COc1ccccc1N1CCN(CC(O)COc2cccc3ccccc23)CC1 (stereo not given) [NAFTOPIDIL],EC50,[6],3.72 µM (active)
CCOc1ccc(N(C(=O)c2snc(C(N)=O)c2N)C(C(=O)NCC2CCCO2)c2ccc(C)o2)cc1 (stereo not given),IC50,[7],> 20 µM (inactive)
CCN(CC)S(=O)(=O)c1ccc2c(c1)c(=O)c(C(=O)NCc1cccs1)cn2C,IC50,Prothrombin,0.0331 µM (active)
CCC(C)(C)NC(=O)CN(C(=O)c1snc(C(N)=O)c1N)c1ccc2c(c1)OCCO2,IC50,[7],> 20 µM (inactive)
CCN(Cc1ccccc1)C(=O)CCc1nc(-c2ccc(C)cc2)no1,EC50,[6],4.8 µM (active)
CCOc1cc(C2C(C#N)=C(N)OC(C)=C2C(C)=O)c(Br)c(Br)c1OC(C)C (stereo not given),EC50,[8],3.46 µM (active)
same,EC50,BJ [9],2.17 µM (active)
same,EC50,BJ [10],14 µM (inconclusive)
same,EC50,BJ [11],2.72 µM (inconclusive)
O=C(C[n+]1cc(-c2ccc(Cl)cc2)n2c1CCC2)N1c2ccccc2Sc2ccccc21,EC50,[12],> 160 µM (inconclusive)
same,AC50,[4],6.34 µM (active)
same,EC50,[13],> 38 µM (not active)
C[C@H](CO)N1C[C@H](C)[C@H](CN(C)Cc2ccc(Cl)c(Cl)c2)Oc2c(NC(=O)c3nc4ccccc4s3)cccc2C1=O,AC50,[1],6.38 µM (active)
CSCCC(NC(=O)c1cccc(C)c1)C(=O)OCC(=O)NC(=O)c1cccn1C (stereo not given),IC50,Prothrombin,39 µM (active)
Cc1ccc(N2C(S)=NC3c4ccccc4OC2(C)C3C(=O)N(C)C)cc1 (stereo not given),IC50,Prothrombin,> 50 µM (inconclusive)
CCCc1nc(NC(C)=O)c(C#N)c(-c2ccco2)c1CC,IC50,Prothrombin,> 50 µM (not active)
O=C(CSc1ccc(Cl)cc1)N1CCN(c2ncc(C(F)(F)F)cc2Cl)CC1,EC50,[6],5.86 µM (active)
same,IC50,Protein skinhead-1,> 100 µM (inactive)
O=C(CSc1ncn(-c2ccccc2)n1)Nc1ccc(Br)cn1,EC50,[6],5.67 µM (active)
O=C(NNC(=O)c1ccccc1Br)c1ccc2nc[nH]c2c1,IC50,[14],7.34 µM (active)
same,AC50,Caspase-6,23.6 µM (active)
O=C(Nc1cccc(F)c1)C1CCN(c2nnnn2-c2ccccc2)CC1,EC50,[6],53.6 µM (active)
CCOc1ccc(-n2c(SCc3ccc([N+](=O)[O-])cc3)nnc2-c2ccccc2)cc1,IC50,Fatty acid synthase [2],5.2 µM (active)
same,EC50,[15],69.4 µM (active)
same,IC50,Fatty acid synthase [3],6.83 µM (active)
same,EC50,[16],24.9 µM (active)
same,EC50,[17],15.5 µM (active)
NC(=S)N=Nc1c(O)n(CCCl)c2ccc(Br)cc12,IC50,[7],> 20 µM (inactive)
COc1ccc(-c2nc3cnccn3c2Nc2ccc3c(c2)OCO3)cc1,AC50,[4],0.702 µM (active)
COc1cc(OC)cc(-c2sc3ccc(OC)cc3c2C#CC2(N)CCCCC2)c1,IC50,[7],> 20 µM (inactive)
same,AC50,[18],2.96 µM (active)
C/C(=C/C(=O)N1CCN(C)CC1)C(=O)O,EC50,[19],36.8 µM (active)
same,IC50,Prothrombin,> 50 µM (not active)
C[C@@H]1CN([C@@H](C)CO)C(=O)Cc2cc(NC(=O)Nc3ccccc3)ccc2O[C@@H]1CN(C)Cc1ccc(C(=O)Nc2ccccc2N)cc1,AC50,[1],2.04 µM (active)
CCN(CC)Cc1nc(O)c2c(n1)-c1ccccc1CC2(CC)CC,CC50,[20],> 40 µM (active)
CC(=O)CSc1nnc(CSc2ncccn2)n1C1CCCCC1,AC50,[4],13.9 µM (active)
O=C(CSc1nnc(-c2ccncc2)n1-c1ccc(Cl)cc1)NCc1cccs1,AC50,[4],9.86 µM (active)
